Common to all, as to assay type: in vivo
The subject of one data set is H. armigera. The experiment in a line: Example 5B, protocol B: mortality on treated leaves, synergy by Colby equation. The note with it: for Mortality: mean mortality after 96 hours, substance and dose g a.i./ha per treatment number of Table 5B. How it is done:
(§1) Ratios of bifenthrin to chlorantraniliprole were evaluated on various crops and target pests as indicated in the protocol disclosed Table 5A below where “Lab.” Refers to laboratory, “No. of Treat.” refers to number of treatments, and Total refers to the total number of insects tested. In each evaluation, foliar application was done, the insecticide action was contact/ingestion and 32 insects were evaluated in each treatment.
(§2) The treatment schedule shown in Table 5B was used where “dose” refers to application rate, “ratio” refers to the ratio of bifenthrin to chlorantraniliprole on an a.i. basis.
(§3) Treatments were applied inside a sprayer chamber simulating a volume of 200 l/ha over soybean plants. After a drying period, treated leaves were removed from the plants and placed inside 16 well trays containing agar solution (2%) covered with filter paper. Two 16 well trays were prepared for each treatment (32 larvae/treatment). One 3rd instar larva from laboratory strains was placed in each well over the treated leaf. Trays were kept under controlled conditions of 25° C., photoperiod of 14:10 hours, and 60% RH. Morality was evaluated after 96 hours. Mortality is defined as dead and moribund larvae.
(§4) Synergy or antagonism was determined using the Colby Equation where: […]
(§5) X is the observed result for compound A at p grams a.e./ha. Y is the observed result for compound B at q grams a.e./ha. E is the expected result for a mixture of A and B at (p+q) g a.i./ha if there is no synergy or antagonism. If the observed value for the combination of A and B is greater than E (Obs>E) then synergy is indicated. If the observed value for the combination of A and B is less than E (Obs<E) then antagonism is indicated.
Morality on H. armigera was evaluated according to protocol B (refer to Table 5B) using treatment numbers 5.1 to 5.13 (refer to Table 5B).

For data set [1], the system named is S. frugiperda field strain. Description: Example 5C, protocol H: mortality on treated leaves, synergy by Colby equation. The note with it: for Mortality: field strain, 96 hours, substance and dose g a.i./ha per treatment number of Table 5B. The procedure:
as §1, §2, §3, §4, §5
(§6) Morality on S. frugiperda was evaluated according to protocols G and H (refer to Table 5B), but where two S. frugiperda strains were tested: a laboratory strain (susceptible) and a field strain in F3 generation sampled in the 2018/2019 season in Sinop-MT region using treatment numbers 5.1 to 5.10 (refer to Table 5B). The results are reported in Tables 5E (Laboratory Strain) and 5F (Filed Strain).

In data set [2] the test system is S. frugiperda laboratory strain (susceptible). Description: Example 5C, protocol G: mortality on treated leaves, synergy by Colby equation. The note with it: 96 hours, substance and dose g a.i./ha per treatment number of Table 5B. The procedure:
as §1, §2, §3, §4, §5, §6

For data set [3], the system named is E. heros 3rd instar nymphs. The experiment in a line: Example 5D, protocol C: mortality on sprayed soybean plants after 72 hours, synergy by Colby equation. The note with it: for Mortality: E. heros 3rd instar nymphs, sprayed soybean plants (V2), after 72 hours, Table 5G. How it is done: as §1, §2, §4, §5
(§7) Morality on E. heros was evaluated according to protocols C and D (refer to Table 5B). In the evaluation method, insecticides (treatment numbers 5.1, 5.3, 5.5 to 5.8 and 5.10 to 5.13 (refer to Table 5B)) were applied over soybean plants at V2 stage inside a spray chamber. After a drying period, a first portion of the plants were infested with 10 3rd instar nymphs of E. heros per plant, with three repetitions per treatment with a total of 30 nymphs per treatment. After the drying period, a second portion of the plants were infested with 10 adults of E. heros per plant, with three repetitions per treatment with a total of 30 adults per treatment. Infested plants were maintained in a greenhouse controlled at a temperature of 26° C. Mortality was evaluated after 72 hours. The results are reported in Tables 5G (nymphs) and 5H (adults).

The next data set has as its system C. includens. Description: Example 5A, protocol A: mortality on treated leaves, synergy by Colby equation. As to conditions: for Mortality: mean mortality after 96 hours, substance and dose g a.i./ha per treatment number of Table 5B. The procedure: as §1, §2, §3, §4, §5
Morality on C. includens was evaluated according to protocol A (refer to Table 5B) using treatment numbers 5.1, 5.3, 5.5 to 5.8 and 5.10 to 5.13 (refer to Table 5B). The results are reported in Table 5C below where mortality is the mean mortality, the E value was calculated by the Colby equation, and the synergy value is determined by dividing the mean mortality (%) by the expected value (E).

The subject of a further data set is E. heros adults. The experiment in a line: Example 5D, protocol D: mortality on sprayed soybean plants after 72 hours, synergy by Colby equation. Also on record: concentration or dose not given beside the values. The note with it: sprayed soybean plants (V2), Table 5H. The procedure: as §1, §2, §4, §5, §7
Data set [4] relates to D. melachantus 3rd instar nymphs. The experiment in a line: Example 5E, protocol E: mortality on sprayed plants after 72 hours, synergy by Colby equation. Also on record: Mortality: concentration or dose not given beside the values. As to conditions: for Mortality: D. melachantus nymphs, sprayed plants, after 72 hours, Table 5I. How it is done: as §1, §2, §4, §5, §7
(§8) Morality on D. melachantus was evaluated according to protocols E and F (refer to Table 5B). In the evaluation method, insecticides (treatment numbers 5.1, 5.3, 5.5 to 5.8 and 5.10 to 5.13 (refer to Table 5B)). Evaluation was done according to the method of Example 5D. The results are reported in Tables 5I (nymphs) and 5J (adults).

The test system of another data set is D. melachantus adults. The experiment in a line: Example 5E, protocol F: mortality on sprayed plants after 72 hours, synergy by Colby equation. On the set-up: concentration or dose not given beside the values. The note with it: Table 5J. The procedure:
as §1, §2, §4, §5, §7, §8

`Cc1c(COC(=O)[C@@H]2[C@H](/C=C(\Cl)C(F)(F)F)C2(C)C)cccc1-c1ccccc1` (racemic) [Bifenthrin, 2-methylbiphenyl-3-ylmethyl (Z)-(1RS)-cis-3-(2-chloro-3,3,3-trifluoroprop-1-enyl)-2,2-dimethyl cyclopropanecarboxylate]: in the data set with H. armigera (even at a higher dose of 60 g a.i./ha, resistance to pyrethroids), the “H. armigera control, in words” value was “lower control”. Further, in data set [1] (lower doses, especially on the field strain), the “control of S. frugiperda, in words” value was “lower control”.
Take `Cc1c(COC(=O)[C@@H]2[C@H](/C=C(\Cl)C(F)(F)F)C2(C)C)cccc1-c1ccccc1` (racemic) [Treatment 5.4, Bifenthrin]: the Mortality is given as 34.4% in data set [2] (listed as 5.4), 0% in the data set on H. armigera (listed as 5.4) and 3.1% in data set [1] (listed as 5.4).
On to `Cc1c(COC(=O)[C@@H]2[C@H](/C=C(\Cl)C(F)(F)F)C2(C)C)cccc1-c1ccccc1` (racemic) [Treatment 5.5, Bifenthrin], for which the Mortality in data set [2] (listed as 5.5) is 53.1%; in data set [3] (listed as 5.5), 38.9%; in the data set with H. armigera (listed as 5.5), 0%; in the data set with C. includens (listed as 5.5), 34.4%; in data set [1] (listed as 5.5), 3.1%; in the data set on E. heros adults (listed as 5.5), 3.3%. Further, the results for the Mortality (in data set [4] (listed as 5.5); with D. melachantus adults (listed as 5.5)) were 56.7% and 39.3%, respectively.
Regarding `Cc1c(COC(=O)[C@@H]2[C@H](/C=C(\Cl)C(F)(F)F)C2(C)C)cccc1-c1ccccc1` (racemic) [Treatment 5.6, Bifenthrin], the Mortality in data set [2] (listed as 5.6) is reported as 78.1%; in data set [3] (listed as 5.6), 43.3%; with H. armigera (listed as 5.6) it was 0%; in the data set on C. includens (listed as 5.6) it was 68.8%; in data set [1] (listed as 5.6), 15.6%; in the data set with E. heros adults (listed as 5.6), 30.0%. Moreover, the Mortality (in data set [4] (listed as 5.6); with D. melachantus adults (listed as 5.6)) was 70.0% in each case.
Turning to `Cc1c(COC(=O)[C@@H]2[C@H](/C=C(\Cl)C(F)(F)F)C2(C)C)cccc1-c1ccccc1` (racemic) [Treatment 5.7, Bifenthrin], the Mortality in data set [2] (listed as 5.7) is 96.9%; in data set [3] (listed as 5.7), 76.7%; in the data set with H. armigera (listed as 5.7), 0%; in the data set with C. includens (listed as 5.7) it was 78.1%; in data set [1] (listed as 5.7) it was 43.8%; with E. heros adults (listed as 5.7), 56.7%. The Mortality (in data set [4] (listed as 5.7); in the data set with D. melachantus adults (listed as 5.7)) was 100% throughout.
As for `Cc1c(COC(=O)[C@@H]2[C@H](/C=C(\Cl)C(F)(F)F)C2(C)C)cccc1-c1ccccc1` (racemic) [Treatment 5.8, Bifenthrin], the Mortality in data set [2] (listed as 5.8) is reported as 93.8%; in data set [3] (listed as 5.8), 85.2%; with H. armigera (listed as 5.8), 9.4%; in the data set on C. includens (listed as 5.8), 78.1%; in data set [1] (listed as 5.8), 43.8%; with E. heros adults (listed as 5.8) it was 80.0%. For the same compound, the Mortality (in data set [4] (listed as 5.8); with D. melachantus adults (listed as 5.8)) was 100% each time.
As for `CNC(=O)c1cc(Cl)cc(C)c1NC(=O)c1cc(Br)nn1-c1ncccc1Cl` [Chlorantraniliprole, 5-bromo-N-[4-chloro-2-methyl-6-(methylcarbamoyl)phenyl]-2-(3-chloropyridin-2-yl)pyrazole-3-carboxamide], in data set [3] (nymphs and adults (protocols C and D)), the “control of E. heros, in words” value is recorded as “did not control”. The “H. armigera control, in words” value in the data set on H. armigera (7.5 g a.i./ha) was “most effective”. Further, the “control of C. includens, in words” value in the data set with C. includens (7.5 g a.i./ha) was “most effective”. Also, in data set [4] (nymphs and adults (protocols E and F)), the “control of D. melacanthus, in words” value is on record as “did not control”.
For `CNC(=O)c1cc(Cl)cc(C)c1NC(=O)c1cc(Br)nn1-c1ncccc1Cl` [Treatment 5.2, Chlorantraniliprole], the Mortality in data set [2] (listed as 5.2) is recorded as 96.9%; in the data set with H. armigera (listed as 5.2), 84.4%; in data set [1] (listed as 5.2), 40.6%.
`CNC(=O)c1cc(Cl)cc(C)c1NC(=O)c1cc(Br)nn1-c1ncccc1Cl` [Treatment 5.3, Chlorantraniliprole]: the Mortality in data set [2] (listed as 5.3) was found to be 100%; in data set [3], 0%; with H. armigera (listed as 5.3), 100%; with C. includens, 100%; in data set [1] (listed as 5.3) it was 59.4%; in the data set with E. heros adults, 3.3%. For the same compound, the values for the Mortality (in data set [4]; in the data set on D. melachantus adults) were 7.0% and 0%, respectively.

These data come from patent US20220386608A1, “INSECTICIDAL MIXTURES OF BIFENTHRIN AND CHLORANTRANILIPROLE” (priority 2019, published 2022).
